# According to publication PMC5131310, “Discovery of piperonal-converting oxidase involved in the metabolism of a botanical aromatic aldehyde” (Scientific Reports, 2016):
# Target: T1, piperonal-converting enzyme (PceSML), FAD site on PceM (Burkholderia sp. CT39-3, UniProt A0A1L7N251)
# T1 construct: same recombinant complex as P1 (N-terminal His tag on PceS, host Burkholderia sp. CT39-3); with Piperonal-converting enzyme large subunit (PceL); Piperonal-converting enzyme small subunit (PceS)
# T1 sequence (A0A1L7N251 1-334): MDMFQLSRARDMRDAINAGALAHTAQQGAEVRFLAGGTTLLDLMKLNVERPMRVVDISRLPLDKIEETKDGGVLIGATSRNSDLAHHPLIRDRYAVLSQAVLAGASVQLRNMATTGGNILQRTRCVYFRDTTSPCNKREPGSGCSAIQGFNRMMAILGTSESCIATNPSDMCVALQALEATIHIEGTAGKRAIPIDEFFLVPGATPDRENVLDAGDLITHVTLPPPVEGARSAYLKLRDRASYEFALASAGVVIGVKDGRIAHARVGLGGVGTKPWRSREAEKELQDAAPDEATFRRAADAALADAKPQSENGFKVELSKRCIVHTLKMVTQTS
# T1 sequence (A0A1L7N257 1-740 partner): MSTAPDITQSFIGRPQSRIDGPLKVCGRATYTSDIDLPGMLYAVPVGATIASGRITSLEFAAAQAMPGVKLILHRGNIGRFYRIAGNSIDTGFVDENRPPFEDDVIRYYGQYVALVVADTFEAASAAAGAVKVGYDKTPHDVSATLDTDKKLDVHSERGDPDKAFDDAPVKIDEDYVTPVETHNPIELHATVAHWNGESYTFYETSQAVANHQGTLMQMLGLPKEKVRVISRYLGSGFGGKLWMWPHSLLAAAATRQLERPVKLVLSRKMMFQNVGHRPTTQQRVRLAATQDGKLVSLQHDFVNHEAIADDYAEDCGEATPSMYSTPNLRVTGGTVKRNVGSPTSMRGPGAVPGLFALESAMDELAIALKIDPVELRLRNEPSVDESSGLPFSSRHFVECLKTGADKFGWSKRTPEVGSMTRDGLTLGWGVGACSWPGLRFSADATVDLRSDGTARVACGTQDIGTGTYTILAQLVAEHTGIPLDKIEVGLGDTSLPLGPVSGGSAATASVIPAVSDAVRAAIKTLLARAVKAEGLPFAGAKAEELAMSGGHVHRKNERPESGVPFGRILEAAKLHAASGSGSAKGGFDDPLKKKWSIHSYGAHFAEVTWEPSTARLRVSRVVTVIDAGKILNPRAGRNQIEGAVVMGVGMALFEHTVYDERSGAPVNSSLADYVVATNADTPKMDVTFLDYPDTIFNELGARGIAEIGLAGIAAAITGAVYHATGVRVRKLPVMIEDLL
# T1 sequence (A0A1L7N258 1-185 partner): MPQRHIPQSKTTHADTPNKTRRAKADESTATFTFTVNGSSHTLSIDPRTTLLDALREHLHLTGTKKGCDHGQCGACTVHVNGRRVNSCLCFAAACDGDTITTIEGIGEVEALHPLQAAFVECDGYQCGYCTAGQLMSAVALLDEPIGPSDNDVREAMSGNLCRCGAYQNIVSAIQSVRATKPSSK
# Experiment: HPLC of flavin released from purified enzyme by HClO4
# Type: binding
# Conditions: as-purified cofactor
smiles,measurement,value
Cc1cc2nc3c(=O)[nH]c(=O)nc-3n(C[C@H](O)[C@H](O)[C@H](O)COP(=O)(O)OP(=O)(O)OC[C@H]3O[C@@H](n4cnc5c(N)ncnc54)[C@H](O)[C@@H]3O)c2cc1C [FAD],HPLC of flavin released from purified enzyme by HClO4,FAD was identified as the flavin cofactor (Fig. 3A)
